From paper PMC8151276, “An Integrated Approach toward NanoBRET Tracers for Analysis of GPCR Ligand Engagement” (Molecules, 2021)

How the values were obtained:
Type in all cases: binding
[1] = target: T1, CCR3 (Homo sapiens, UniProt P51677); test: NanoBRET screen HiBiT-CCR3 in HEK293
T1 construct: purchased Promega (in-house HiBiT-GPCR construct library, NanoBRET)
T1 sequence (P51677 1-355): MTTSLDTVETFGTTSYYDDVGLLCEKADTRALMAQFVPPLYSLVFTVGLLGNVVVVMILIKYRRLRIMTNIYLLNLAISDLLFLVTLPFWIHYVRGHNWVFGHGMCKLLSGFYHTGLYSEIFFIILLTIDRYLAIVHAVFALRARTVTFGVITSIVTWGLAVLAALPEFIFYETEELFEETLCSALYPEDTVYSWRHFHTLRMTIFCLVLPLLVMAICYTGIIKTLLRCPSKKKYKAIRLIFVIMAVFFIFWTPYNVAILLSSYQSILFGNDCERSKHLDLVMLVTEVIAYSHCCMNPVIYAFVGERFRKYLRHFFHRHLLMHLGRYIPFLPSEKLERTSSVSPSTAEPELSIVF
Procedure: (§1) Each tracer candidate was screened across the entire library of HiBiT-GPCR constructs using NanoBRET as the detection modality. As depicted in Figure 4A, the specificity of interactions was evaluated through decrease in BRET due to competitive displacement of a bound tracer by excess parental compound. Each tracer was analyzed for binding to each HiBiT-GPCR fusion in the absence and in the presence of competing parental compound. Briefly, HEK293 cells were transfected with HiBiT-GPCR constructs diluted into promoterless DNA to reduce expression and maximize translocation to the cell surface. Each tracer candidate was then screened at concentrations of 1 μM and 0.1 μM across cells expressing these fusions. Cells were treated for 1.5 h with tracer either alone or in the presence of 20 μM competing parental compound (i.e., control). BRET was measured upon addition of purified LgBiT and subsequent complementation with HiBiT genetically fused to a GPCR. The specificity of interactions was assessed through a decrease in BRET signal due to competitive displacement of the bound tracer. To further gauge the robustness of these interactions, the fold response over the control (i.e., BRETtracer/BRETcontrol) was calculated. We chose a 1.5-fold response, which translates to ≥7-fold signal over noise as the minimal threshold required to score an interaction as positive. […]. Below we highlight the screening results obtained for our exemplary fluorescent tracers based on Clozapine, Amitriptyline and AZD1283.
(§2) HiBiT-GPCR DNA constructs were diluted in 10 mM Tris pH 8 to a final concentration of 0.01 μg/μL, arrayed in 96-well plates and stored at −20 °C. For transfection, HEK293 cells were suspended in Opti-MEM (without phenol red) supplemented with 2% fetal bovine serum (Seradigm) and 100 units/mL penicillin–streptomycin (Gibco) at a final concentration of 220,000 cells/mL and dispensed into white 96-well plates at 90 μL/well. Subsequent transfections and screens were carried using an Agilent Bravo Automated Liquid Handling Platform. First, the 96-well HiBiT DNA arrays were diluted 25-fold in Opti-MEM (without serum or phenol red) to a final concentration of 0.0004 μg/μL and 20 μL of the diluted DNAs were transferred into new 96-well plates. Next, promoterless carrier DNA (1 μg/μL) was diluted 25-fold (0.04 μg/μL) and then dispensed into the diluted arrays at 20 μL/well. Following brief mixing, Viafect transfection reagent (Promega) diluted 16-fold into Opti-MEM was dispensed into the plates at 40 μL/well. After mixing by pipetting, plates were incubated for 10 min on the pipetting station deck. The DNA-transfection reagent complexes were then added to plates containing cells. To facilitate the screen, 10 μL of DNA-transfection reagent complexes were added in duplicates to the top 4 and bottom 4 rows, resulting in two identical 48-well arrays per plate. Plates with transfected cells were incubated for 18–20 h at 37 °C/5% CO2. A screen of each tracer across the entire library using two different concentrations requires duplicate plates of transfected cells. Depending on the number of tracers being screened, transfections can be scaled up using the same ratios. The next day, for each tracer, four 20× screening solutions in tracer dilution buffer (Promega) were prepared: two duplicates at final concentration of 20 μM and two duplicates at a final concentration of 2 μM. A competing unmodified compound was added to one of each duplicate at a final concentration of 400 μM. The four resulting solutions were diluted 4-fold in Opti-MEM without serum or phenol red to generate 5× solutions (5 µM and 0.5 µM tracer +/− 100 μM competing compound). To screen the library, a BioTek MultiFlo FX liquid dispenser was used to dispense 22.5 µL of tracer solution to the top 4 rows and 22.5 µL tracer + competing compound solution to the 4 bottom rows. Plates were briefly mixed on an orbital shaker and incubated for 1.5 h at room temperature. […]

[2] = target: T2, P2RY11 (Homo sapiens, UniProt Q96G91); test: NanoBRET screen HiBiT-P2RY11 in HEK293
T2 construct: purchased Promega (in-house HiBiT-GPCR construct library, NanoBRET)
T2 sequence (Q96G91 1-374): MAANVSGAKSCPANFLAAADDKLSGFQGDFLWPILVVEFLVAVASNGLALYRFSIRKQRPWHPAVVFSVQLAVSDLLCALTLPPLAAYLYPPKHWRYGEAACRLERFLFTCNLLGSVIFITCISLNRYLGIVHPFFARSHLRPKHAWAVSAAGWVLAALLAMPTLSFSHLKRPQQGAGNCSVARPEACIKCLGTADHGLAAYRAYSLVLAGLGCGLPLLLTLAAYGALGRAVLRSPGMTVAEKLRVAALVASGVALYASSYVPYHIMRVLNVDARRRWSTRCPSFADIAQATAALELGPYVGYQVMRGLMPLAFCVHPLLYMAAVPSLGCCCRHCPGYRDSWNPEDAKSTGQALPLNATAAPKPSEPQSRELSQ
Procedure: as §1, §2

[3] = target: T3, SSTR5 (Homo sapiens, UniProt P35346); test: NanoBRET screen HiBiT-SSTR5 in HEK293
T3 construct: purchased Promega (in-house HiBiT-GPCR construct library, NanoBRET)
T3 sequence (P35346 whole entry): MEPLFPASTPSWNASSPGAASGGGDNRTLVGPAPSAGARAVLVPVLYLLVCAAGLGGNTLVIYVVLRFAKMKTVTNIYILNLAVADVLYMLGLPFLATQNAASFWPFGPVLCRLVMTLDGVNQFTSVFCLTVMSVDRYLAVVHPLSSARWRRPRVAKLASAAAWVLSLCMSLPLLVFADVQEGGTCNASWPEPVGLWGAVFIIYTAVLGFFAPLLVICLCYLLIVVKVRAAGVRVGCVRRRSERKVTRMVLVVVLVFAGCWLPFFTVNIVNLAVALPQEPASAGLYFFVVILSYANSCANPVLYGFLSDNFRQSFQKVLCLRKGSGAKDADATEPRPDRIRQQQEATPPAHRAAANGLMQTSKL
Procedure: as §1, §2

[4] = target: T4, MC3R (Homo sapiens, UniProt P41968); test: NanoBRET screen HiBiT-MC3R in HEK293
T4 construct: purchased Promega (in-house HiBiT-GPCR construct library, NanoBRET)
T4 sequence (P41968 whole entry): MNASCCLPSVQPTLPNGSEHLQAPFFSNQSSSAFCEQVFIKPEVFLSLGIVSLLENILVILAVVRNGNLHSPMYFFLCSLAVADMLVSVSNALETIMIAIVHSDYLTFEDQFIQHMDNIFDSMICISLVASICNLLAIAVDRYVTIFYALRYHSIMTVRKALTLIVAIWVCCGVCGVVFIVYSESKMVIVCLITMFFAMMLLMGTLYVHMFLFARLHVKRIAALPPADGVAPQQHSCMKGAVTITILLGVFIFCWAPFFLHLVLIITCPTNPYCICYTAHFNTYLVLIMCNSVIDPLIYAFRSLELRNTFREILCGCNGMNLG
Procedure: as §1, §2

[5] = target: T5, PTGDR (Homo sapiens, UniProt Q13258); test: NanoBRET screen HiBiT-PTGDR in HEK293
T5 construct: purchased Promega (in-house HiBiT-GPCR construct library, NanoBRET)
T5 sequence (Q13258 1-359): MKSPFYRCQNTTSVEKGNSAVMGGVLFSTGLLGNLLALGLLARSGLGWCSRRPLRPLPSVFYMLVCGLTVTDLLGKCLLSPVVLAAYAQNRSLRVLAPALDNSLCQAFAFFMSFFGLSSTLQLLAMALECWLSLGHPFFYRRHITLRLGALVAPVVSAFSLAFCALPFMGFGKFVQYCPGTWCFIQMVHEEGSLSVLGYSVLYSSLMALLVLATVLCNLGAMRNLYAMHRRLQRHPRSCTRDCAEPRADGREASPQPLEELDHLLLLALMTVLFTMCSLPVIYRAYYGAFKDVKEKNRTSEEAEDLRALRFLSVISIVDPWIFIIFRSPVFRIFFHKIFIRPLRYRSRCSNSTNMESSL
Procedure: as §1, §2

[6] = target: T6, GRM2 (Homo sapiens, UniProt Q14416); test: NanoBRET screen HiBiT-GRM2 in HEK293
T6 construct: purchased Promega (in-house HiBiT-GPCR construct library, NanoBRET)
T6 sequence (Q14416 19-872): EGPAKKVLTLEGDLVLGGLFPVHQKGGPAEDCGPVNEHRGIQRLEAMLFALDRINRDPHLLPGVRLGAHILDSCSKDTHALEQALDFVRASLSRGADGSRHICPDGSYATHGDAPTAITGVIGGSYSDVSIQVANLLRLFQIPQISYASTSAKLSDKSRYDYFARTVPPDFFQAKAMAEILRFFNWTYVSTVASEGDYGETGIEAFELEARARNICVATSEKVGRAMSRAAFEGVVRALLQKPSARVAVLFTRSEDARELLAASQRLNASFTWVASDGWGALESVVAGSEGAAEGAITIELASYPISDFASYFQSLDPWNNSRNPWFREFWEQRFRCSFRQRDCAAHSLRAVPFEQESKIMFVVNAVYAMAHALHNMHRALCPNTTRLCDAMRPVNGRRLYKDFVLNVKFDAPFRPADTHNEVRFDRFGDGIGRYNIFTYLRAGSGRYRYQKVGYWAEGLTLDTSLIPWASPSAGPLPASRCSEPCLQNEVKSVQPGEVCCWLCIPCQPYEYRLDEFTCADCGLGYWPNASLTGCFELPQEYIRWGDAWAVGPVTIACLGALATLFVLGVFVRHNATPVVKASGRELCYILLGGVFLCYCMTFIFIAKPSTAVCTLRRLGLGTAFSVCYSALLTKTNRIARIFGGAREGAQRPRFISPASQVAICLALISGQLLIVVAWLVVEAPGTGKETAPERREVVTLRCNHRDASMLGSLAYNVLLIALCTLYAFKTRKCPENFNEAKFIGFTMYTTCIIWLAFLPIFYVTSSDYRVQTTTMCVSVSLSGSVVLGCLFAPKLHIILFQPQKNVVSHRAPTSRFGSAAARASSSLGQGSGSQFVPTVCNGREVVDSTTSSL
Procedure: as §1, §2

SMILES: CN1CCN(C2=Nc3cc(Cl)ccc3N(CC(=O)NCCOCCOCCOCCOCCNC(=O)CCc3ccc4n3[B-](F)(F)[N+]3=C(c5ccc[nH]5)C=CC3=C4)c3ccccc32)CC1 [Clozapine-c-2-NB590]
- NanoBRET Fold Response ([1]; CCR3, 0.1μM tracer): 0.97
- NanoBRET Fold Response ([1]; CCR3, 1μM tracer): 0.85
- NanoBRET Fold Response ([2]; P2RY11, 0.1μM tracer): 0.93
- NanoBRET Fold Response ([2]; P2RY11, 1μM tracer): 0.98
- NanoBRET Fold Response ([3]; SSTR5, 0.1μM tracer): 1.01
- NanoBRET Fold Response ([3]; SSTR5, 1μM tracer): 0.99
- NanoBRET Fold Response ([4]; MC3R, 0.1μM tracer): 1.02
- NanoBRET Fold Response ([4]; MC3R, 1μM tracer): 1.03
- NanoBRET Fold Response ([5]; PTGDR, 0.1μM tracer): 1.04
- NanoBRET Fold Response ([5]; PTGDR, 1μM tracer): 1.07
- NanoBRET Fold Response ([6]; GRM2, 0.1μM tracer): 0.97
- NanoBRET Fold Response ([6]; GRM2, 1μM tracer): 1.00

SMILES: Cc1nc2n(c(=O)c1CCN1CCC(c3noc4cc(F)ccc34)CC1)CCCC2OC(=O)NCCOCCOCCOCCOCCNC(=O)CCc1ccc2n1[B-](F)(F)[N+]1=C(c3ccc[nH]3)C=CC1=C2 (stereo not drawn) [Risperidone-2-NB590]
- NanoBRET Fold Response ([1]; CCR3, tracer 0.1μM): 1.06
- NanoBRET Fold Response ([1]; CCR3, tracer 1μM): 1.27
- NanoBRET Fold Response ([2]; P2RY11, tracer 0.1μM): 1.04
- NanoBRET Fold Response ([2]; P2RY11, tracer 1μM): 0.88
- NanoBRET Fold Response ([3]; SSTR5, tracer 0.1μM): 1.01
- NanoBRET Fold Response ([3]; SSTR5, tracer 1μM): 1.02
- NanoBRET Fold Response ([4]; MC3R, tracer 0.1μM): 0.99
- NanoBRET Fold Response ([4]; MC3R, tracer 1μM): 0.95
- NanoBRET Fold Response ([5]; PTGDR, tracer 0.1μM): 1.01
- NanoBRET Fold Response ([5]; PTGDR, tracer 1μM): 0.93
- NanoBRET Fold Response ([6]; GRM2, tracer 0.1μM): 0.96
- NanoBRET Fold Response ([6]; GRM2, tracer 1μM): 1.04

SMILES: COc1ccc2[nH]c(-c3ccc(CNC(=O)CCOCCOCCOCCOCCNC(=O)CCc4ccc5n4[B-](F)(F)[N+]4=C(c6ccc[nH]6)C=CC4=C5)cc3)c(CCNC(C)=O)c2n1 [AzomelatoninICO9-2-NB590]
- NanoBRET Fold Response ([1]; 0.1μM tracer): 1.40
- NanoBRET Fold Response ([1]; 1μM tracer): 1.25
- NanoBRET Fold Response ([2]; 0.1μM tracer): 1.19
- NanoBRET Fold Response ([2]; 1μM tracer): 0.97
- NanoBRET Fold Response ([3]; 0.1μM tracer): 1.01
- NanoBRET Fold Response ([3]; 1μM tracer): 1.01
- NanoBRET Fold Response ([4]; 0.1μM tracer): 1.02
- NanoBRET Fold Response ([4]; 1μM tracer): 0.72
- NanoBRET Fold Response ([5]; 0.1μM tracer): 1.06
- NanoBRET Fold Response ([5]; 1μM tracer): 0.88
- NanoBRET Fold Response ([6]; 0.1μM tracer): 1.11
- NanoBRET Fold Response ([6]; 1μM tracer): 0.95

SMILES: COc1ccccc1N1CCN(CCCCN2C(=O)c3ccc(CNC(=O)CCOCCOCCOCCOCCNC(=O)CCc4ccc5n4[B-](F)(F)[N+]4=C(c6ccc[nH]6)C=CC4=C5)cc3C2=O)CC1 [NAN-190-2-NB590]
- NanoBRET Fold Response ([1]; CCR3, tracer 0.1μM): 1.08
- NanoBRET Fold Response ([1]; CCR3, tracer 1μM): 1.11
- NanoBRET Fold Response ([2]; P2RY11, tracer 0.1μM): 1.09
- NanoBRET Fold Response ([2]; P2RY11, tracer 1μM): 0.99
- NanoBRET Fold Response ([3]; SSTR5, tracer 0.1μM): 0.98
- NanoBRET Fold Response ([3]; SSTR5, tracer 1μM): 1.04
- NanoBRET Fold Response ([4]; MC3R, tracer 0.1μM): 1.03
- NanoBRET Fold Response ([4]; MC3R, tracer 1μM): 1.00
- NanoBRET Fold Response ([5]; PTGDR, tracer 0.1μM): 0.97
- NanoBRET Fold Response ([5]; PTGDR, tracer 1μM): 1.01
- NanoBRET Fold Response ([6]; GRM2, tracer 0.1μM): 0.26
- NanoBRET Fold Response ([6]; GRM2, tracer 1μM): 1.00
